Patent US20130344174A1, “Bioactive Fractions and Compounds from Polygonum genus, their Use in Anti-diarrhea and the Method of Preparation” (HONG KONG BAPTIST UNIVERSITY, priority 2012, published 2013)

Tests used:
Format in all cases: in vivo, ICR mice
[1] = test system: intestinal fluid secretion evoked by MgSO4 in mice; assay: Antienteropooling assay (MgSO4-evoked intestinal fluid accumulation); details: 5 days, compared to control group, FIG. 7
Description: ICR mice weighing 18-22 g were purchased from the Laboratory Animal Services Center, The Chinese University of Hong Kong. The animals were fed with a rodent standard diet with free access to water, and were kept in rooms maintained at 22±1° C. with a 12 h light/dark cycle following international recommendations. All experimental protocols were approved by The Animal Ethics Committees of Hong Kong Baptist University, in accordance with “Institutional Guidelines and Animal Ordinance” (Department of Health, Hong Kong Special Administrative Region). The experiment was conducted as previously described with a litter revision. Animals will be randomly divided into six groups. Vehicle control group received 0.5% CMC suspension (10 ml/kg, p.o.), the positive control group was administered loperamide at the dose of 2 mg/kg orally; the test groups were orally administered major principles ellagic acid at the doses of 15 and 30 mg/kg, and corilagin at the doses of 30 and 60 mg/kg, respectively. The whole treatment lasted for 5 consecutive days. Before the last treatment, the mice of all groups were fasted overnight. After one hour of the last treatment on day 5, all groups were given the diarrhea reagent (0.5 ml/mouse of a 20% aq. MgSO4, orally). They were killed 30 min later and the small intestines were collected and weighed to find out the accumulation of intestinal fluid secretion evoked by MgSO4.

[2] = test system: castor oil-induced diarrhea in mice; assay: Castor oil-induced diarrhea in mice; details: castor oil model, FIG. 6; for inhibitory effect on diarrhea (stools rate, stools grade, diarrhea index): oral, corilagin 30 and 60 mg/kg, ellagic acid 15 and 30 mg/kg
Description: ICR mice weighing 18-22 g were purchased from the Laboratory Animal Services Center, The Chinese University of Hong Kong. The animals were fed with a rodent standard diet with free access to water, and were kept in rooms maintained at 22±1° C. with a 12 h light/dark cycle following international recommendations. All experimental protocols were approved by The Animal Ethics Committees of Hong Kong Baptist University, in accordance with “Institutional Guidelines and Animal Ordinance” (Department of Health, Hong Kong Special Administrative Region). The castor oil-induced diarrhea model, as previously described by Zhou, et al in Zhou [NT]; Hu Zhihua; Wang […]; et al (Institute of Chinese Materia Medica, China Pharmaceutical University, Nanjing); An Inquiry into Preparing Diarrhea Model of Mice and Application of Diarrhea Index[J]; Chinese Traditional and Herbal Drugs; 1994-04, was used in the present study. In brief, extracts, fractions or major components of P. chinense, and loperamide were administered orally for 5 consecutive days. On day 5, each animal was kept individually in a cage, the floor of which was lined with blotting paper, and the paper was changed every hour. 30 min after the last treatment, diarrhea was induced by oral administration of castor oil ([…]). Number of total fecal pellets and wet faeces were counted in 4 h after the administration of castor oil. The diameter of wet faeces was measured and scored in order to evaluate stool consistency as follows: 1-the diameter of wet […] than 1.0 cm; 2-the diameter of wet […] between 1.0 and 2.0 cm; 3-the diameter of wet […] between 2.0 and 3.0 cm; 4- the diameter of wet […] more than 3.0 cm. The stool rate (SR) was calculated through comparing of the number of wet faeces and total faeces, and stool grade (SG) was evaluated according to the formula: [formula] where Nwet is the number of wet faeces; N<1, N1-2, N2-3 and N>3 are the number of wet faeces whose diameter are less than 1.0 cm, between 1.0 and 2.0 cm, between 2.0 and 3.0 cm, and more than 3.0 cm, respectively. Finally, the stool severity was evaluated by the in vivo diarrheal index (DI) and expressed as follows according to the method of Zhou, et al. DI=SR×SG

[3] = test system: magnesium sulphate-induced diarrhea in mice; assay: Magnesium sulphate-induced diarrhea in mice; details: magnesium sulfate model, FIG. 6; for inhibitory effect on diarrhea (stools rate, stools grade, diarrhea index): oral, corilagin 30 and 60 mg/kg, ellagic acid 15 and 30 mg/kg
Description: ICR mice weighing 18-22 g were purchased from the Laboratory Animal Services Center, The Chinese University of Hong Kong. The animals were fed with a rodent standard diet with free access to water, and were kept in rooms maintained at 22±1° C. with a 12 h light/dark cycle following international recommendations. All experimental protocols were approved by The Animal Ethics Committees of Hong Kong Baptist University, in accordance with “Institutional Guidelines and Animal Ordinance” (Department of Health, Hong Kong Special Administrative Region). A protocol for castor oil-induced diarrhea was followed. In brief, diarrhea was induced by orally administration of magnesium sulphate at the dose of 3 g/kg to the animals 30 min after pretreatment with extracts, fractions or major components of P. chinense, and loperamide. All the administrations are carried out through oral route. Stool rate (SR), stool grade (SG) and diarrheal index (DI) were all evaluated.

[4] = test system: intestinal transit of charcoal meal in mice; assay: Gastrointestinal transit test (charcoal meal); details: 5 days, FIG. 7
Description: ICR mice weighing 18-22 g were purchased from the Laboratory Animal Services Center, The Chinese University of Hong Kong. The animals were fed with a rodent standard diet with free access to water, and were kept in rooms maintained at 22±1° C. with a 12 h light/dark cycle following international recommendations. All experimental protocols were approved by The Animal Ethics Committees of Hong Kong Baptist University, in accordance with “Institutional Guidelines and Animal Ordinance” (Department of Health, Hong Kong Special Administrative Region). The experiment was conducted based on methods known in the art with a litter revision. Animals will be randomly divided into six groups. Vehicle control group received 0.5% CMC suspension (10 ml/kg, p.o.), the positive control group was administered loperamide at the dose of 2 mg/kg orally; the test groups were orally administered major principles ellagic acid at the doses of 15 and 30 mg/kg, and corilagin at the doses of 30 and 60 mg/kg, respectively. The whole treatment lasted for 5 consecutive days. Before the last treatment, the mice of all groups were fasted overnight. Five minutes later of the last treatment on day 5, 0.5 ml of a 3% suspension of deactivated charcoal in 0.5% aqueous Sodium Carboxymethyl Cellulose was administered orally to each mouse. All the mice were killed by cervical […] 30 min later and the distance travelled by the charcoal plug from pylorus to caecum was determined and expressed as a percentage of the total length of the small intestine.

[5] = 60 mg/kg oral vs loperamide 2 mg/kg
[6] = 30 mg/kg oral vs loperamide 2 mg/kg

Structure (SMILES) | intestinal fluid volume (pylorus to caecum) ([1]; 30 mg/kg oral) | intestinal fluid volume (pylorus to caecum) ([1]; 60 mg/kg oral) | anti-diarrheal activity compared to loperamide [2, 5] | inhibitory effect on diarrhea (stools rate, stools grade, diarrhea index) [2] | anti-diarrheal activity compared to loperamide [3, 5] | inhibitory effect on diarrhea (stools rate, stools grade, diarrhea index) [3] | intestinal transit of charcoal meal ([4]; 15 mg/kg oral) | intestinal transit of charcoal meal ([4]; 30 mg/kg oral) | intestinal fluid volume (pylorus to caecum) ([1]; 15 mg/kg oral) | anti-diarrheal activity compared to loperamide [2, 6] | anti-diarrheal activity compared to loperamide [3, 6]
O=C(O[C@@H]1O[C@@H]2COC(=O)c3cc(O)c(O)c(O)c3-c3c(cc(O)c(O)c3O)C(=O)O[C@H]([C@H]1O)[C@@H]2O)c1cc(O)c(O)c(O)c1 [corilagin] | significantly reduced | significantly reduced | comparable anti-diarrheal activities as loperamide | significantly inhibitory effects | comparable anti-diarrheal activities as loperamide | significantly inhibitory effects | significantly delay | significantly delay |  |  | 
O=c1oc2c(O)c(O)cc3c(=O)oc4c(O)c(O)cc1c4c23 [ellagic acid] | significantly reduced |  |  | significantly inhibitory effects |  | significantly inhibitory effects |  | significantly delay | significantly reduced | comparable anti-diarrheal activities as loperamide | comparable anti-diarrheal activities as loperamide
